Literature values, collected in patent US20110046204A1, “Human Zip1, Zinc and Citrate for Prostate Cancer Screening” (University of Maryland, Balitmore, priority 2006, published 2011).

Conditions: zinc-indicator dye TSQ; read-out: affinity for zinc (Kd)

Question: For `COc1cc(NS(=O)(=O)c2ccc(C)cc2)c2ncccc2c1` [TSQ], which Kd is on record?
Answer: ~0.01 µM
